Several values for one entry are separate records, joined by “and”; a condition that tells them apart may be missing. Equal values may be shown once. Read-outs that look alike come from different tables or passages of the source.
Assays:
[1] = Experimental solubility in organic solvents
Text: Experimental Solubility of Cryptophane a (Conventional Cryptophane Outside the Invention)
Experimental Solubility of Cryptophane-1N

[2] = Encapsulation efficiency by UV spectrophotometry; assay type: physicochemical
Protocol: Cryptophanes concentration were defined using spectrophotometry (Infinite M200, Tecan, Mannedorf, Switzerland) by determining absorbance spectrum of Crytophane in solution in MeOH.
The encapsulation efficiency (EE) was determined after filtration through 0.2 μm syringe filters (Minisart® Syringe Filter, Sartorius, Goettingen, Germany) to remove unentrapped cryptophanes. Then, these samples were diluted in methanol (1/100, v/v) and the concentration of cryptophane was determined by spectrophotometry at 288 nm. The EE was determined in duplicate and calculated as follows: […]
A UV calibration curve for each of the compounds was carried out (see protocol above) using a stock solution of Cr1N in acetonitrile (1.05 mg/mL) and a stock solution of cryptophane A in DMSO (1.85 mg/mL), solutions subsequently diluted in methanol.
The batch of nanoemulsions loaded with Cr1N was diluted 100-fold in methanol. Under these conditions, it was confirmed by DLS that the nanoemulsions were destroyed. The amount of cryptophane in this sample was then determined. The concentration of cryptophane in the sample was 28 μM, i.e. an encapsulation efficiency of 60%.

[3] = 129Xe NMR xenon encapsulation; assay type: binding; conditions: 5 bars, CDCl3, 278 K
Text: FIG. 1 illustrates the ^129Xe NMR spectrum (5 bars, CDCl3) of cryptophane-1N 12.
^129Xe NMR (5 bars, CDCl3): illustrated in FIG. 1.

[4] = physchem; conditions: organic solvent or mixture
[5] = Cavity size by X-ray crystallography; assay type: physicochemical; conditions: crystals by slow evaporation in dichloromethane at 4° C.
Protocol: Crystallographic data of both anti and syn cryptophanes 1N were obtained by slow evaporation in dichloromethane at 4° C. The anti compound has a cavity size of 137.0 Å^3 and the syn compound has a cavity size of 121.4 Å^3, both larger than the size of the prior art cryptophane C (114.5 Å^3).
Anti cryptophanes 1N crystals were also obtained by slow evaporation in anisole, which is too large to enter the cage. This enabled to visualise the conformation of the cryptophane 1N and the size of its cavity without caged compound. The size of the empty cavity is between 85.4 and 86.8 Å^3.

[6] = prior art cryptophane; cited from earlier work

Compound: COc1cc2c3cc1OCCOc1cc4c(cc1OC)Cc1cc5c(OC)cc1Cc1cc(c(OC)cc1C4)OCCOc1cc(c(cc1OC)C3)Cc1cc(OC)c(cc1C2)OCCO5 [Cryptophane A]
- Experimental solubility in MeCN [1]: very poorly soluble

Compound: COc1cc2c3cc1OCCOc1ccc4c(c1)Cc1ccc5cc1Nc1ccc(cc1C4)OCCOc1cc(c(cc1OC)C3)Cc1cc(OC)c(cc1C2)OCCO5 [Cryptophane-1N]
- amount loaded into nanoemulsions relative to cryptophane A [2]: more than twice as much
- Xenon encapsulation [3]: successfully encapsulate xenon
- solubility ([4]; Experimental solubility in CHCl3): > 8.27 mM
- solubility ([4]; Experimental solubility in DMSO): > 59500 µg/mL and > 73800 µM
- solubility ([4]; Experimental solubility in MeCN): > 2.23 mM
- cavity size [5]: 137.0 Å^3

Compound: COc1cc2c3cc1OCCOc1ccc4c(c1)Cc1ccc5cc1Nc1ccc(cc1C4)OCCOc1cc(c(cc1OC)Cc1cc(c(OC)cc1C3)OCCO5)C2 [Cryptophane-1N Syn]
- cavity size [5]: 121.4 Å^3

Compound: cryptophane C
- cavity size [6]: 114.5 Å^3
